Test results taken from ChEMBL document CHEMBL1201862, “PubChem BioAssay data set” (2004).
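Results reflect a 48-hour exposure of cells in 96-well plates to compound at five concentrations. The concentration for 50% growth inhibition is given as GI50.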 Calls of active or inactive are those of the source. Cut-off read from the data, not from the text of the source: active = GI50 up to about 1.1 µM and inactive = higher.

Tests used:
Assay in all cases: growth of human tumour cells (NCI), 48 h
[1] = system: DLD-1
[2] = system: HT-29
[3] = system: K562
[4] = system: A498
[5] = system: ACHN
[6] = system: RPMI-8226
[7] = system: OVCAR-5
[8] = system: Malme-3M
[9] = system: HCT-116
[10] = system: CCRF-CEM
[11] = system: KM12
[12] = system: SF-539
[13] = system: CAKI-1
[14] = system: OVCAR-8
[15] = system: SF-295
[16] = system: DMS-114
[17] = system: SR
[18] = system: HL-60
[19] = system: SK-MEL-28
[20] = system: IGROV-1
[21] = system: UACC-62
[22] = system: NCI-H226
[23] = system: MOLT-4
[24] = system: SN12C
[25] = system: HOP-92
[26] = system: SW-620
[27] = system: NCI-H23
[28] = system: NCI-H522
[29] = system: A549
[30] = system: HCC 2998
[31] = system: SK-MEL-5
[32] = system: UO-31
[33] = system: M19-MEL
[34] = system: HOP-18
[35] = system: SK-MEL-2
[36] = system: UACC-257
[37] = system: DMS-273
[38] = system: TK-10
[39] = system: RXF 393
[40] = system: LXFL 529
[41] = system: EKVX
[42] = system: SNB-75
[43] = system: 786-0
[44] = system: COLO 205
[45] = system: SK-OV-3
[46] = system: SNB-19
[47] = system: SNB-78
[48] = system: OVCAR-3
[49] = system: U-251
[50] = system: SF-268
[51] = system: HCT-15
[52] = system: OVCAR-4
[53] = system: HOP-62
[54] = system: KM-20L2
[55] = system: NCI-H460
[56] = system: M14
[57] = system: MDA-N
[58] = system: DU-145
[59] = system: MCF7
[60] = system: BT-549
[61] = system: NCI/ADR-RES
[62] = system: PC-3
[63] = system: MDA-MB-231
[64] = system: T47D
[65] = system: LOX IMVI
[66] = system: Hs-578T
[67] = system: MDA-MB-435

FC(F)(F)c1ccccc1C1SCc2nc3ccccc3n21 (stereo unspecified)
GI50 [1]: 52.2 µM (inactive)
GI50 [2]: 33.8 µM (inactive)
GI50 [3]: 16.2 µM (inactive)
GI50 [4]: 12.3 µM (inactive)
GI50 [5]: 40.6 µM (inactive)
GI50 [6]: 23 µM (inactive)
GI50 [7]: 28.8 µM (inactive)
GI50 [8]: 25.4 µM (inactive)
GI50 [9]: 39.1 µM (inactive)
GI50 [10]: 27.4 µM (inactive)
GI50 [11]: 70.8 µM (inactive)
GI50 [12]: 85.7 µM (inactive)
GI50 [13]: 32.6 µM (inactive)
GI50 [14]: 61.4 µM (inactive)
GI50 [15]: 57.1 µM (inactive)
GI50 [16]: 33 µM (inactive)
GI50 [17]: 27.9 µM (inactive)
GI50 [18]: 10.2 µM (inactive)
GI50 [19]: 77.8 µM (inactive)
GI50 [20]: 60.1 µM (inactive)
GI50 [21]: 22.5 µM (inactive)
GI50 [22]: 39.4 µM (inactive)
GI50 [23]: 23.9 µM (inactive)
GI50 [24]: 31.6 µM (inactive)
GI50 [25]: 4.67 µM (inactive)
GI50 [26]: > 100 µM (inactive)
GI50 [27]: 34 µM (inactive)
GI50 [28]: 18.3 µM (inactive)
GI50 [29]: 41.6 µM (inactive)
GI50 [30]: > 100 µM (inactive)
GI50 [31]: > 10 µM (inactive)
GI50 [32]: 49.7 µM (inactive)
GI50 [33]: 43.3 µM (inactive)
GI50 [34]: > 100 µM (inactive)
GI50 [35]: 99.3 µM (inactive)
GI50 [36]: 26.1 µM (inactive)
GI50 [37]: 38 µM (inactive)
GI50 [38]: > 100 µM (inactive)
GI50 [39]: 91.8 µM (inactive)
GI50 [40]: 99.8 µM (inactive)
GI50 [41]: 41.1 µM (inactive)
GI50 [42]: > 100 µM (inactive)
GI50 [43]: > 100 µM (inactive)
GI50 [44]: 59.8 µM (inactive)
GI50 [45]: 60.7 µM (inactive)
GI50 [46]: > 100 µM (inactive)
GI50 [47]: > 100 µM (inactive)
GI50 [48]: 40.1 µM (inactive)
GI50 [49]: 88.5 µM (inactive)
GI50 [50]: 61.9 µM (inactive)

Cc1ccccc1NC(=O)C1C(=O)N(c2ccccc2C)C(=O)/C1=N\NC(N)=O (stereo unspecified)
GI50 [1]: > 100 µM (inactive)
GI50 [2]: > 100 µM (inactive)
GI50 [3]: > 100 µM (inactive)
GI50 [4]: > 100 µM (inactive)
GI50 [5]: > 100 µM (inactive)
GI50 [7]: > 100 µM (inactive)
GI50 [8]: > 100 µM (inactive)
GI50 [9]: > 100 µM (inactive)
GI50 [10]: > 100 µM (inactive)
GI50 [11]: > 100 µM (inactive)
GI50 [12]: > 100 µM (inactive)
GI50 [13]: > 100 µM (inactive)
GI50 [14]: > 100 µM (inactive)
GI50 [15]: > 100 µM (inactive)
GI50 [16]: > 100 µM (inactive)
GI50 [17]: > 100 µM (inactive)
GI50 [18]: > 100 µM (inactive)
GI50 [51]: > 100 µM
GI50 [52]: > 100 µM (inactive)
GI50 [19]: > 100 µM (inactive)
GI50 [20]: > 100 µM (inactive)
GI50 [21]: > 100 µM (inactive)
GI50 [23]: > 100 µM (inactive)
GI50 [24]: > 100 µM (inactive)
GI50 [53]: > 100 µM (inactive)
GI50 [25]: > 100 µM (inactive)
GI50 [26]: > 100 µM (inactive)
GI50 [27]: > 100 µM (inactive)
GI50 [54]: > 100 µM (inactive)
GI50 [28]: > 100 µM (inactive)
GI50 [29]: > 100 µM (inactive)
GI50 [30]: > 100 µM (inactive)
GI50 [31]: > 100 µM (inactive)
GI50 [32]: > 100 µM (inactive)
GI50 [33]: > 100 µM (inactive)
GI50 [34]: 92.3 µM (inactive)
GI50 [35]: > 100 µM (inactive)
GI50 [36]: > 100 µM (inactive)
GI50 [37]: > 100 µM (inactive)
GI50 [38]: > 100 µM (inactive)
GI50 [39]: > 100 µM (inactive)
GI50 [40]: > 100 µM (inactive)
GI50 [41]: > 100 µM (inactive)
GI50 [42]: 37.5 µM (inactive)
GI50 [43]: > 100 µM (inactive)
GI50 [44]: > 100 µM (inactive)
GI50 [46]: > 100 µM (inactive)
GI50 [55]: > 100 µM (inactive)
GI50 [47]: > 100 µM (inactive)
GI50 [48]: > 100 µM (inactive)
GI50 [56]: > 100 µM (inactive)
GI50 [49]: > 100 µM (inactive)
GI50 [50]: > 100 µM (inactive)

COc1cc2c3cc1Oc1c(O)c(OC)cc4c1[C@H](Cc1ccc(cc1)Oc1cc(ccc1O)C[C@H]3N(C)CC2)N(C)CC4
GI50 [2]: 3.84 µM (inactive)
GI50 [3]: 2.56 µM (inactive)
GI50 [4]: 16.7 µM (inactive)
GI50 [5]: 19.4 µM (inactive)
GI50 [57]: 10.7 µM (inactive)
GI50 [6]: 5.33 µM (inactive)
GI50 [7]: 23.6 µM (inactive)
GI50 [8]: 17.3 µM (inactive)
GI50 [58]: 15.1 µM (inactive)
GI50 [9]: 5.77 µM (inactive)
GI50 [10]: 10.4 µM (inactive)
GI50 [11]: 9.02 µM (inactive)
GI50 [12]: 3.23 µM (inactive)
GI50 [13]: 25.9 µM (inactive)
GI50 [14]: 14.9 µM (inactive)
GI50 [15]: 12.4 µM (inactive)
GI50 [17]: 1.63 µM (inactive)
GI50 [18]: 6.68 µM (inactive)
GI50 [59]: 13.3 µM (inactive)
GI50 [51]: 9.29 µM
GI50 [52]: 16.9 µM (inactive)
GI50 [19]: 19.2 µM (inactive)
GI50 [60]: 12.9 µM (inactive)
GI50 [20]: 13.8 µM (inactive)
GI50 [21]: 17.4 µM (inactive)
GI50 [22]: 29.4 µM (inactive)
GI50 [61]: 24.5 µM (inactive)
GI50 [62]: 8.51 µM (inactive)
GI50 [23]: 8.41 µM (inactive)
GI50 [24]: 4.17 µM (inactive)
GI50 [53]: 16.4 µM (inactive)
GI50 [25]: 6.64 µM (inactive)
GI50 [26]: 16.5 µM (inactive)
GI50 [27]: 22.4 µM (inactive)
GI50 [63]: 10.3 µM (inactive)
GI50 [28]: 11 µM (inactive)
GI50 [29]: 15.2 µM (inactive)
GI50 [64]: 17.9 µM (inactive)
GI50 [30]: 7.05 µM (inactive)
GI50 [65]: 4.94 µM (inactive)
GI50 [31]: 7.33 µM (inactive)
GI50 [32]: 12.6 µM (inactive)
GI50 [66]: 20 µM (inactive)
GI50 [35]: 12.3 µM (inactive)
GI50 [36]: 15 µM (inactive)
GI50 [38]: 13.6 µM (inactive)
GI50 [39]: 3.63 µM (inactive)
GI50 [41]: 16.7 µM (inactive)
GI50 [42]: 18.8 µM (inactive)
GI50 [43]: 6.52 µM (inactive)
GI50 [44]: 13.8 µM (inactive)
GI50 [45]: 25.4 µM (inactive)
GI50 [46]: 20.9 µM (inactive)
GI50 [55]: 8.99 µM (inactive)
GI50 [48]: 10.2 µM (inactive)
GI50 [67]: 10.7 µM (inactive)
GI50 [56]: 2.25 µM (inactive)
GI50 [49]: 9.48 µM (inactive)
GI50 [50]: 14.4 µM (inactive)

CCN(CC)CCCNc1nncc2c(C)c3[nH]c4ccc(OC)cc4c3cc12
GI50 [2]: 0.504 µM (active)
GI50 [3]: 0.14 µM (active)
GI50 [4]: 1.75 µM (inactive)
GI50 [5]: 1.08 µM (active)
GI50 [57]: 0.695 µM (active)
GI50 [6]: 0.724 µM (active)
GI50 [7]: 1.25 µM (inactive)
GI50 [8]: 0.916 µM (active)
GI50 [58]: 0.622 µM (active)
GI50 [9]: 0.277 µM (active)
GI50 [10]: 0.0535 µM (active)
GI50 [11]: 0.592 µM (active)
GI50 [12]: 0.268 µM (active)
GI50 [13]: 8.41 µM (inactive)
GI50 [14]: 0.182 µM (active)
GI50 [15]: 1.55 µM (inactive)
GI50 [17]: 0.414 µM (active)
GI50 [18]: 0.91 µM (active)
GI50 [59]: 0.0975 µM (active)
GI50 [51]: 10.3 µM
GI50 [52]: 0.618 µM (active)
GI50 [19]: 0.766 µM (active)
GI50 [60]: 1.54 µM (inactive)
GI50 [20]: 0.356 µM (active)
GI50 [21]: 1.29 µM (inactive)
GI50 [22]: 0.0557 µM (active)
GI50 [61]: 38.8 µM (inactive)
GI50 [62]: 0.358 µM (active)
GI50 [23]: 0.0173 µM (active)
GI50 [24]: 0.271 µM (active)
GI50 [53]: 0.525 µM (active)
GI50 [25]: 0.369 µM (active)
GI50 [26]: 0.184 µM (active)
GI50 [27]: 0.421 µM (active)
GI50 [63]: 0.716 µM (active)
GI50 [28]: 0.0256 µM (active)
GI50 [29]: 0.718 µM (active)
GI50 [64]: 0.286 µM (active)
GI50 [30]: 0.65 µM (active)
GI50 [65]: 0.189 µM (active)
GI50 [31]: 0.935 µM (active)
GI50 [32]: 3.17 µM (inactive)
GI50 [66]: 0.482 µM (active)
GI50 [35]: 1.02 µM (active)
GI50 [36]: 2.35 µM (inactive)
GI50 [38]: 2.82 µM (inactive)
GI50 [39]: 1.32 µM (inactive)
GI50 [41]: 2.11 µM (inactive)
GI50 [42]: 0.64 µM (active)
GI50 [43]: 0.222 µM (active)
GI50 [44]: 1.03 µM (active)
GI50 [45]: 1.17 µM (inactive)
GI50 [46]: 0.318 µM (active)
GI50 [55]: 0.789 µM (active)
GI50 [48]: 0.604 µM (active)
GI50 [67]: 1.11 µM (active)
GI50 [56]: 1.61 µM (inactive)
GI50 [49]: 0.304 µM (active)
GI50 [50]: 0.706 µM (active)
